Measurements: paper PMC11731258, “The structural basis for high-affinity c-di-GMP binding to the GSPII-B domain of the traffic ATPase PilF from Thermus thermophilus” (The Journal of Biological Chemistry, 2024)

How the values were obtained:
[1] = biological target: PilB2; parameters: method as in PMID 27578558, PMID 31868878; settings: cited from earlier work
[2] = biological target: T1, PilF159-302 D266A (Thermus thermophilus, UniProt Q5SLC9, D266A); assay: ITC binding to PilF159-302 D266A; settings: 20 °C
T1 sequence (Q5SLC9 159-302 D266A): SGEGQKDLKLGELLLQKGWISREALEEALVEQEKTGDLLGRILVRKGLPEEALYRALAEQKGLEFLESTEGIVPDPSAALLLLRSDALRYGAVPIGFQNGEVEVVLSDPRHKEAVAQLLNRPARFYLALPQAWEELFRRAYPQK
Experimental: (§1) To assess the ligand-binding capabilities of the various PilF constructs, triplicates of ITC measurements were recorded for each construct. The measurements were carried out using a MicroCal ITC200 (Malvern Panalytical). All ITC experiments were conducted at 20 °C with 50 mM Tris-HCl pH 7.5, 200 mM sodium chloride, 1 mM β-mercaptoethanol as the sample buffer. All protein samples were extensively dialyzed against the sample buffer and the buffer used for dialysis was used to dilute protein and c-di-GMP samples in preparation for the ITC measurements. Each measurement was conducted using the following protocol. In total, 39.8 μl c-di-GMP were titrated to 270 μl protein in 20 separate injections in 180 s intervals with a stirring speed of 750 rpm. After an initial delay of 120 s, the first injection of 0.2 μl c-di-GMP with a duration of 0.4 s was followed by 19 injections of 2 μl with a duration of 4 s. During the measurement, the feedback mode was set to high and the reference power to 11 μcal s^−1. To optimize precision of the measurements, protein and c-di-GMP concentrations were adjusted to the binding capabilities of the respective constructs and ranged from 5 to 200 μM for protein and 50 to 2000 μM for c-di-GMP. All thermograms were processed using Origin 7.0 (OriginLab) using a one-site– or two-site–binding model dependent on the number of expected binding events.

[3] = biological target: T2, PilF159-302 (GSPII-B domain) (Thermus thermophilus, UniProt Q5SLC9); assay: ITC binding to PilF159-302; settings: for N / ΔH / ΔS / Kd: ITC
T2 sequence (Q5SLC9 159-302): T1 sequence (Q5SLC9 159-302 D266A)
Experimental: as §1, with “All ITC experiments were conducted at 20 °C with 50 mM Tris-HCl pH 7.5, 200 mM sodium chloride, 1 mM β-mercaptoethanol as the sample buffer.” left out

[4] = biological target: T3, PilF159-221 (lacking the C-terminal subdomain) (Thermus thermophilus, UniProt Q5SLC9); assay: ITC binding to PilF159-221
T3 sequence (Q5SLC9 159-221): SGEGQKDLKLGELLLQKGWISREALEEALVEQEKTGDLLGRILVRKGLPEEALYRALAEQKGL
Experimental: as §1

[5] = biological target: T4, PilF159-302 K167L (Thermus thermophilus, UniProt Q5SLC9, K167L); assay: ITC binding to PilF159-302 K167L; settings: 20 °C
T4 sequence (Q5SLC9 159-302 K167L): T1 sequence (Q5SLC9 159-302 D266A)
Experimental: as §1

[6] = biological target: T5, PilF1-302 (GSPII-A and GSPII-B) (Thermus thermophilus, UniProt Q5SLC9); assay: ITC binding to PilF1-302; settings: 20 °C
T5 sequence (Q5SLC9 1-302): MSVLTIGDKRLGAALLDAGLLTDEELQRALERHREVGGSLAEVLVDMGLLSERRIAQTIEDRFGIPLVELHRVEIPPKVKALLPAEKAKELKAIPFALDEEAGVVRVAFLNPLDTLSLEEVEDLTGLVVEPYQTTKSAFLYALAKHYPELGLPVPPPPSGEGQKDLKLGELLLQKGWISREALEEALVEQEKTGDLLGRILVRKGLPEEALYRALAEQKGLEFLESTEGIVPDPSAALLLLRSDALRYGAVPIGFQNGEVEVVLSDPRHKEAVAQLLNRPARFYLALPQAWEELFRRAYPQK
Experimental: as §1

[7] = system: PilF GSPII-A domain; assay: ITC comparison of domain truncation constructs; format: binding, Thermus thermophilus; settings: inferred from ITC of PilF1-302 vs PilF159-302 and PilF1-482
Experimental: as §1

[8] = biological target: T6, PilF159-302 K167R+E170D (Thermus thermophilus, UniProt Q5SLC9, E170D/K167R); assay: ITC binding to PilF159-302 K167R-E170D; settings: 20 °C
T6 sequence (Q5SLC9 159-302 K167R/E170D): T1 sequence (Q5SLC9 159-302 D266A)
Experimental: as §1

With `Nc1nc2c(ncn2[C@@H]2O[C@@H]3COP(=O)(O)O[C@H]4[C@@H](O)[C@H](n5cnc6c(=O)[nH]c(N)nc65)O[C@@H]4COP(=O)(O)O[C@H]3[C@H]2O)c(=O)[nH]1` [c-di-GMP, cyclic dimeric guanosine monophosphate] as the compound, how does the Kd [1] read?
The Kd was 0.0135 µM.

And the N [2]?
Its N is 0.95 ± 0.05.

And the ΔH [2]?
Its ΔH is -9.995 ± 0.161 kcal/mol.

And the ΔS [2]?
Its ΔS is 0.6 ± 0.4 cal/mol/deg.

And the Kd ([2]; pH 7.5)?
The Kd was 0.027 ± 0.002 µM.

What about the “fold higher affinity than MshEN” value ([3]; GSPII-B (KD 6 nM) vs MshEN (KD 500 nM)) of the same compound?
Its value is 83 fold.

What about the N ([3]; 20 °C) of the same compound?
Its N is 0.66 ± 0.02.

And the ΔH ([3]; 20 °C)?
The ΔH was -10.795 ± 1.145 kcal/mol.

What about the ΔS ([3]; 20 °C) of the same compound?
Its ΔS is -0.8 ± 4.0 cal/mol/deg.

What about the N ([3]; 45 °C) of the same compound?
The N was 0.88 ± 0.11.

What about the ΔH ([3]; 45 °C) of the same compound?
The ΔH was -13.327 ± 1.389 kcal/mol.

What about the ΔS ([3]; 45 °C) of the same compound?
Its ΔS is -6.6 ± 4.2 cal/mol/deg.

And the Kd ([3]; 20 °C, pH 7.5)?
Its Kd is 0.006 µM.

What about the Kd ([3]; 45 °C) of the same compound?
Its Kd is 0.02 µM.

What about the “increase in the free enthalpy of binding compared to MshEN” value ([3]; at 20 °C) of the same compound?
Its value is ~2.7 kcal/mol.

And the N ([4]; ITC, 20 °C)?
Its N is 1.17 ± 0.02.

What about the ΔH ([4]; ITC, 20 °C) of the same compound?
Its ΔH is -11.453 ± 0.189 kcal/mol.

What about the ΔS ([4]; ITC, 20 °C) of the same compound?
Its ΔS is -5.8 ± 0.6 cal/mol/deg.

And the Kd ([4]; ITC, 20 °C, pH 7.5)?
Its Kd is 0.054 ± 0.003 µM.

What about the “fold higher KD than PilF159-302” value ([4]; PilF159-302 6 nM) of the same compound?
Its value is 9 fold.

And the N [5]?
Its N is 0.76 ± 0.10.

And the ΔH [5]?
The ΔH was -10.241 ± 0.494 kcal/mol.

And the ΔS [5]?
Its ΔS is 5.4 ± 1.4 cal/mol/deg.

And the Kd ([5]; pH 7.5)?
Its Kd is 0.002 ± 0.0003 µM.

And the N [6]?
Its N is 0.94 ± 0.13.

What about the ΔH [6] of the same compound?
The ΔH was -14.263 ± 2.001 kcal/mol.

And the ΔS [6]?
Its ΔS is -11.4 ± 6.4 cal/mol/deg.

And the Kd ([6]; pH 7.5)?
Its Kd is 0.007 ± 0.002 µM.

What about the “ability to bind c-di-GMP” value [7] of the same compound?
The value was “lacking the ability to bind c-di-GMP”.

And the N [8]?
The N was 0.76 ± 0.03.

And the ΔH [8]?
The ΔH was -12.843 ± 0.363 kcal/mol.

What about the ΔS [8] of the same compound?
Its ΔS is -11.6 ± 1.3 cal/mol/deg.

And the Kd ([8]; pH 7.5)?
Its Kd is 0.092 ± 0.008 µM.
